In patent US20240336565A1, “SOLID FORMS OF OSANETANT” (Acer Therapeutics, Inc., priority 2021, published 2024):

Key:
Type in all cases: physicochemical
[1] = Hygroscopicity / dynamic vapor sorption (DVS)
Method: The osanetant p-toluenesulfonic acid Form 1 solids consisted of aggregated crystals with an undefined morphology. Select peaks which can be used to characterize osanetant p-toluenesulfonic acid Form 1 include one or more of 11.4°2θ±0.2°2θ, 18.0°2θ±0.2°2θ, 19.0°2θ±0.2°2θ, 19.3°2θ±0.2°2θ, 19.8°2θ±0.2°2θ, or 21.1°2θ±0.2°2θ. In some embodiments, osanetant p-toluenesulfonic acid Form 1 is a monohydrate.

[2] = Long term stability: base (2M NaOH) at ambient temperature; settings: 2M NaOH, dark, ambient, up to 14 days
Method: (§1) Osanetant p-toluenesulfonic acid Form 1 and osanetant benzenesulfonic acid Form 1 were tested for long-term stability across a number of different conditions, as detailed below.
(§2) Base at Ambient Temperature—Osanetant p-toluenesulfonic acid Form 1 and osanetant benzenesulfonic acid Form 1 were prepared at an osanetant content 10 times the normal working concentration then added to HPLC vials containing 2M NaOH and stored in the dark at ambient laboratory conditions. Samples were diluted to 2 mg/mL for analysis and were taken after T=1, 2, 4, 7, and 14 days storage. […] The purity of the resulting material is described in Table 44: […]

[3] = Long term stability: oxidation (6% H2O2) at ambient temperature; settings: 6% H2O2, dark, ambient, up to 14 days
Method: as §1
as §2, with “Oxidation” for “Base”, “Temperature-Osanetant” for “Temperature—Osanetant”, “6% H2O2” for “2M NaOH”, “46:” for “44:”

## CC(=O)N(C)C1(c2ccccc2)CCN(CCC[C@]2(c3ccc(Cl)c(Cl)c3)CCCN(C(=O)c3ccccc3)C2)CC1.Cc1ccc(S(=O)(=O)O)cc1 [osanetant p-toluenesulfonic acid Form 1, (R)-N-(1-(3-(1-benzoyl-3-(3,4-dichlorophenyl)piperidin-3-yl)propyl)-4-phenylpiperidin-4-yl)-N-methylacetamide p-toluenesulfonic acid]
[1]
  hygroscopicity / water loss on DVS analysis: did not lose the water
[1]; at 80% RH
  weight gain (hygroscopicity): 0.2 wt. %
[2]
  degradation on storage (purity): lack of degradation
[3]
  degradation on storage (purity): lack of degradation
